The source of these data is patent publication US20080207573A1, “COMPOUNDS FOR TREATING VIRAL INFECTIONS” (priority 2006, published 2008).

Like-named read-outs stand apart in the source and are kept apart here.

Data set [1] has as its system HIV-1 laboratory strain, NL4-3. The experiment in a line: MT-4 Cytoprotection Assay (protection from HIV-induced cytopathic effect, WST-1 readout). The data set is classed as cell-based. Here is the method:
MT-4 Cytoprotection Assay
(§1) The HTLV-1 transformed T cell line, MT-4, is highly susceptible to HIV-1 infection. Anti-HIV-1 agents were evaluated in this target cell line by protection from the HIV-induced cytopathic effect. In this assay, viability of both HIV-1 and mock-infected cells was assessed in a […] assay that monitors the ability of metabolically-active cells to reduce the tetrazolium salt WST-1. Cytoprotection by antiviral compounds is indicated by the positive readout of increased WST-1 cleavage.
(§2) Briefly, exponentially growing MT-4 cells were mock-infected or batch-infected with the HIV-1 laboratory strain, NL4-3, at a multiplicity of infection of 0.0005. Following a two hour infection, the cells were washed to remove unbound virus and plated in the presence of increasing concentrations of compound. After four days incubation, cytoprotection in the infected cells and compound toxicity in mock-infected cells were analyzed using the WST-1 assay.
In general terms: Cytopathic effects are the visible damage that an infection or toxin causes in cultured cells.

A short description of data set [2]: Compound toxicity in mock-infected MT-4 cells (WST-1 assay). The data set is classed as cell-based. As to conditions: human, read-out: TC50 (concentration of compound that results in death of 50% of the host cells). Here is the method:
as §1, §2
A general note: Tetrazolium dyes change colour on reduction, which living cells bring about.

A short description of data set [3]: Human Liver Microsome Assay (metabolic stability). The data set is classed as in vitro ADME. As to conditions: human liver microsomes 0.5 mg/mL, test article 1 μM. The method, then: Human Liver Microsome Assay
The microsomal fraction of liver homogenates contains endoplasmic reticulum derived cytochrome P450 enzymes that constitute the major phase I drug metabolizing enzymes. Briefly, to aid prediction of the in vivo rate of clearance of a dosed test article, an in vitro incubation containing human liver microsomes (0.5 mg/mL final protein concentration) and test article (1 μM incubation concentration) in the presence and absence of the necessary cofactor NADPH (1 mM incubation concentration) is conducted. The incubation is performed in a buffered aqueous system (100 mM potassium phosphate, pH 7.4). The concentration of the parent compound is determined using liquid chromatography coupled with tandem mass spectrometry and reported as percent remaining from a zero minute concentrations.
Background: Liver microsomes are vesicles of endoplasmic reticulum, rich in cytochrome P450 enzymes.

Data set [4] concerns HIV-1 laboratory strain, NL4-3. The experiment in a line: MT-4 Cytoprotection Assay (protection from HIV-induced cytopathic effect, WST-1 readout). The data set is classed as cell-based. As to conditions: Human immunodeficiency virus 1, NL43; Table 6, printed in the MT4 IC50 column but marked MT4 assay.
The mark [5] stands for this setting: Human immunodeficiency virus 1, NL43, MT4, 96 h, MT-4 cells, HIV-1 NL4-3, four days, read-out: EC50 (concentration of compound that reduces the virus induced cytopathic effect by 50% (MT-4)).
[6] abbreviates: Human immunodeficiency virus 1, NL43, list of representative compounds, read-out: EC50 of less than about 100 nm (representative compounds).

Consider `C=C(C)[C@@H]1CC[C@]2(C(=O)NCCc3ccc(OC)cc3)CC[C@]3(C)[C@H](CC[C@@H]4[C@@]5(C)CC[C@H](OC(=O)CC(C)(C)C(=O)O)C(C)(C)[C@@H]5CC[C@]43C)[C@@H]12` [Compound 70], for which the figures for the EC50 in data set [1] (setting [5]) and in data set [1] (setting [6]) were roughly 2.9 nM and less than 100 nM, respectively. Also, in data set [2], the CC50 at 4 days is greater than 10 µM.
In the case of `C=C(C)[C@@H]1CC[C@]2(C(=O)NCc3ccc(C(=O)O)cc3)CC[C@]3(C)[C@H](CC[C@@H]4[C@@]5(C)CC[C@H](OC(=O)CC(C)(C)C(=O)O)C(C)(C)[C@@H]5CC[C@]43C)[C@@H]12` [Compound 71], the EC50 in data set [1] (setting [5]) was roughly 126 nM. Further, the CC50 at 4 days in data set [2] was roughly 7.7 µM.
For `C=C(C)[C@@H]1CC[C@]2(C(=O)NCc3ccccc3C(=O)O)CC[C@]3(C)[C@H](CC[C@@H]4[C@@]5(C)CC[C@H](OC(=O)CC(C)(C)C(=O)O)C(C)(C)[C@@H]5CC[C@]43C)[C@@H]12` [Compound 73], the EC50 in data set [1] (setting [5]) was roughly 8.1 nM; in data set [1] (setting [6]), less than 100 nM. Moreover, in data set [2], the CC50 at 4 days is roughly 6.3 µM.
For the compound `C=C(C)[C@@H]1CC[C@]2(C(=O)NCc3cccnc3)CC[C@]3(C)[C@H](CC[C@@H]4[C@@]5(C)CC[C@H](OC(=O)CC(C)(C)C(=O)O)C(C)(C)[C@@H]5CC[C@]43C)[C@@H]12` [Compound 76], the EC50 in data set [1] (setting [5]) was roughly 11 nM; in data set [1] (setting [6]), less than 100 nM. Also, the CC50 at 4 days in data set [2] was greater than 10 µM.
`C=C(C)[C@@H]1CC[C@]2(C(=O)NCc3ccccn3)CC[C@]3(C)[C@H](CC[C@@H]4[C@@]5(C)CC[C@H](OC(=O)CC(C)(C)C(=O)O)C(C)(C)[C@@H]5CC[C@]43C)[C@@H]12` [Compound 83]: the EC50 in data set [1] (setting [6]) was less than 100 nM. The “Metabolic Stability in Human liver Microsomes % compound remaining at 40 minutes” value in data set [3] (40 minutes) was found to be 11%. Besides, in data set [3] (pH 7.4, read-out: Metabolic Stability in Human liver Microsomes T1/2), the half-life at 1 μM was less than 10 min. The same compound registered an IC50 in data set [4] of 4.6 nM.

Broadly, the IC50 is the concentration needed to halve the response being measured.
